These results are taken from patent US10045983B2, “Heteroaryl pyridone and aza-pyrodine compounds” (Genentech, Inc., priority 2011, dated 2018).

This assay can be described thus: CD69 Whole Blood Assay (CD69 Hu Blood FACS). It counts as cell-based, human. As to conditions: Lymphocyte; human whole blood, anti-IgM activated B lymphocytes, FACS; IC70; Table 2 (unit inferred); read-out: CD69 Hu Blood FACS (IC70). The essentials:
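Compounds tested for blocking B-cell CD69 induction by flow cytometry in human whole blood, with activation via anti-human IgM goat F(ab′)2 crosslinking of surface IgM.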
Broadly, the IC70 is the concentration needed for an effect of 70%. On to `C[C@H]1CN(C2COC2)CCN1c1ccc(Nc2cc(-c3ccnc(-n4ncc5c6c(sc5c4=O)CC(C)(C)C6)c3CO)cn(C)c2=O)nc1` [Example 282, 3-[3-(hydroxymethyl)-4-[1-methyl-5-[[5-[(2S)-2-methyl-4-(oxetan-3-yl)piperazin-1-yl]-2-pyridyl]amino]-6-oxo-3-pyridyl]-2-pyridyl]-7,7-dimethyl-6,8-dihydrocyclopenta[3,4]thieno[1,3-d]pyridazin-4-one], for which the IC70 worked out at 17.4 nM.

Consider `Cc1cc(Nc2cc(-c3ccnc(N4CCn5c(cc6c5CC(C)(C)C6)C4=O)c3CO)cn(C)c2=O)no1` [Example 283, 3-[3-(hydroxymethyl)-4-[1-methyl-5-[(5-methylisoxazol-3-yl)amino]-6-oxo-3-pyridyl]-2-pyridyl]-7,7-dimethyl-1,2,6,8-tetrahydrocyclopenta[3,4]pyrrolo[3,5-b]pyrazin-4-one], for which the IC70 is 143 nM.

On to `Cn1cc(-c2ccnc(N3CCc4c(c(F)c5n4CCCC5)C3=O)c2CO)cc(Nc2cc3n(n2)CCN(C2COC2)C3)c1=O` [Example 284, 10-fluoro-2-[3-(hydroxymethyl)-4-[1-methyl-5-[[5-(oxetan-3-yl)-6,7-dihydro-4H-pyrazolo[1,5-a]pyrazin-2-yl]amino]-6-oxo-3-pyridyl]-2-pyridyl]-3,4,6,7,8,9-hexahydropyrido[3,4-b]indolizin-1-one], for which the concentration for an effect of 70% (IC70) stood at 131 nM.

As to `Cn1cc(-c2ccnc(N3CCn4c(cc5c4CC(C)(C)C5)C3=O)c2CO)cc(Nc2cn(C3COC3)cn2)c1=O` [Example 285, 3-[3-(hydroxymethyl)-4-[1-methyl-5-[[1-(oxetan-3-yl)imidazol-4-yl]amino]-6-oxo-3-pyridyl]-2-pyridyl]-7,7-dimethyl-1,2,6,8-tetrahydrocyclopenta[3,4]pyrrolo[3,5-b]pyrazin-4-one], the 70% effect concentration (IC70) was determined as 175 nM.

For `Cn1cc(-c2ccnc(N3CCn4c(cc5c4CC(C)(C)C5)C3=O)c2CO)cc(Nc2ccon2)c1=O` [Example 286, 3-[3-(hydroxymethyl)-4-[5-(isoxazol-3-ylamino)-1-methyl-6-oxo-3-pyridyl]-2-pyridyl]-7,7-dimethyl-1,2,6,8-tetrahydrocyclopenta[3,4]pyrrolo[3,5-b]pyrazin-4-one], the IC70 worked out at 167 nM.

Take `CC1c2cc(Nc3cc(-c4ccnc(N5CCn6c(cc7c6CCCC7)C5=O)c4CO)cn(C)c3=O)nn2CCN1C` (stereo not shown) [Example 287, 2-[4-[5-[(4,5-dimethyl-6,7-dihydro-4H-pyrazolo[1,5-a]pyrazin-2-yl)amino]-1-methyl-6-oxo-3-pyridyl]-3-(hydroxymethyl)-2-pyridyl]-3,4,6,7,8,9-hexahydropyrazino[1,2-a]indol-1-one]: the IC70 is 127 nM.

For `Cc1cc(Nc2cc(-c3ccnc(-n4ncc5c6c(sc5c4=O)CC(C)(C)C6)c3CO)cn(C)c2=O)no1` [Example 288, 3-[3-(hydroxymethyl)-4-[1-methyl-5-[(5-methylisoxazol-3-yl)amino]-6-oxo-3-pyridyl]-2-pyridyl]-7,7-dimethyl-6,8-dihydrocyclopenta[3,4]thieno[1,3-d]pyridazin-4-one], the IC70 came out at 229 nM.

Consider `Cn1cc(-c2ccnc(N3CCn4c(cc5c4CC(C)(C)C5)C3=O)c2CO)cc(Nc2cc[nH]n2)c1=O` [Example 289, 3-[3-(hydroxymethyl)-4-[1-methyl-6-oxo-5-(1H-pyrazol-3-ylamino)-3-pyridyl]-2-pyridyl]-7,7-dimethyl-1,2,6,8-tetrahydrocyclopenta[3,4]pyrrolo[3,5-b]pyrazin-4-one], for which the IC70 is 214 nM.

As for `Cn1ccc(Nc2cc(-c3ccnc(N4CCn5c(cc6c5CC(C)(C)C6)C4=O)c3CO)cn(C)c2=O)n1` [Example 290, 3-[3-(hydroxymethyl)-4-[1-methyl-5-[(1-methylpyrazol-3-yl)amino]-6-oxo-3-pyridyl]-2-pyridyl]-7,7-dimethyl-1,2,6,8-tetrahydrocyclopenta[3,4]pyrrolo[3,5-b]pyrazin-4-one], the IC70 is 113 nM.

Consider `Cc1cc(Nc2cc(-c3ccnc(-n4ncc5c6c(sc5c4=O)CCCC6)c3CO)cn(C)c2=O)no1` [Example 291, 3-[3-(hydroxymethyl)-4-[1-methyl-5-[(5-methylisoxazol-3-yl)amino]-6-oxo-3-pyridyl]-2-pyridyl]-6,7,8,9-tetrahydrobenzothiopheno[2,3-d]pyridazin-4-one], for which the IC70 turned out to be 843 nM.

Regarding `Cc1cc(Nc2cc(-c3ccnc(-n4ncc5c6c(sc5c4=O)CC(C)(C)C6)c3CO)cn(C)c2=O)nn1C` [Example 292, 3-[4-[5-[(1,5-dimethylpyrazol-3-yl)amino]-1-methyl-6-oxo-3-pyridyl]-3-(hydroxymethyl)-2-pyridyl]-7,7-dimethyl-6,8-dihydrocyclopenta[3,4]thieno[1,3-d]pyridazin-4-one], the IC70 is 118 nM.

For the compound `Cn1cc(Nc2cc(-c3ccnc(N4CCn5c(cc6c5CC(C)(C)C6)C4=O)c3CO)cn(C)c2=O)nn1` [Example 293, 3-[3-(hydroxymethyl)-4-[1-methyl-5-[(1-methyltriazol-4-yl)amino]-6-oxo-3-pyridyl]-2-pyridyl]-7,7-dimethyl-1,2,6,8-tetrahydrocyclopenta[3,4]pyrrolo[3,5-b]pyrazin-4-one], the IC70 was 69.1 nM.

For the compound `Cn1cc(-c2ccnc(N3CCn4c(cc5c4CC(C)(C)C5)C3=O)c2CO)cc(Nc2cc(C(C)(C)C)on2)c1=O` [Example 294, 3-[4-[5-[(5-tert-butylisoxazol-3-yl)amino]-1-methyl-6-oxo-3-pyridyl]-3-(hydroxymethyl)-2-pyridyl]-7,7-dimethyl-1,2,6,8-tetrahydrocyclopenta[3,4]pyrrolo[3,5-b]pyrazin-4-one], the IC70 was found to be 276 nM.

Consider `CCc1cc(Nc2cc(-c3ccnc(N4CCn5c(cc6c5CC(C)(C)C6)C4=O)c3CO)cn(C)c2=O)no1` [Example 295, 3-[4-[5-[(5-ethylisoxazol-3-yl)amino]-1-methyl-6-oxo-3-pyridyl]-3-(hydroxymethyl)-2-pyridyl]-7,7-dimethyl-1,2,6,8-tetrahydrocyclopenta[3,4]pyrrolo[3,5-b]pyrazin-4-one], for which the IC70 worked out at 134 nM.

With `COCCN1CCn2nc(Nc3cc(-c4ccnc(N5CCn6c(cc7c6CC(C)(C)C7)C5=O)c4CO)cn(C)c3=O)cc2C1` [Example 296, 3-[3-(hydroxymethyl)-4-[5-[[5-(2-methoxyethyl)-6,7-dihydro-4H-pyrazolo[1,5-a]pyrazin-2-yl]amino]-1-methyl-6-oxo-3-pyridyl]-2-pyridyl]-7,7-dimethyl-1,2,6,8-tetrahydrocyclopenta[3,4]pyrrolo[3,5-b]pyrazin-4-one], the IC70 is 19.3 nM.

As to `CN1CCn2nc(Nc3cc(-c4ccnc(N5CCn6c(cc7c6CC(C)(C)C7)C5=O)c4CO)nn(C)c3=O)cc2C1` [Example 297, 3-[3-(hydroxymethyl)-4-[1-methyl-5-[(5-methyl-6,7-dihydro-4H-pyrazolo[1,5-a]pyrazin-2-yl)amino]-6-oxo-pyridazin-3-yl]-2-pyridyl]-7,7-dimethyl-1,2,6,8-tetrahydrocyclopenta[3,4]pyrrolo[3,5-b]pyrazin-4-one], the IC70 came out at 140 nM.

For the compound `Cn1cc(-c2ccnc(N3CCn4c(cc5c4CC(C)(C)C5)C3=O)c2CO)cc(Nc2cnc(C#N)cn2)c1=O` [Example 298, 5-[[5-[2-(7,7-dimethyl-4-oxo-1,2,6,8-tetrahydrocyclopenta[3,4]pyrrolo[3,5-b]pyrazin-3-yl)-3-(hydroxymethyl)-4-pyridyl]-1-methyl-2-oxo-3-pyridyl]amino]pyrazine-2-carbonitrile], the concentration for an effect of 70% (IC70) was 869 nM.

`Cn1cc(-c2ccnc(N3CCn4c(cc5c4CC(C)(C)C5)C3=O)c2CO)cc(Nc2cc(-c3ccccc3)on2)c1=O` [Example 299, 3-[3-(hydroxymethyl)-4-[1-methyl-6-oxo-5-[(5-phenylisoxazol-3-yl)amino]-3-pyridyl]-2-pyridyl]-7,7-dimethyl-1,2,6,8-tetrahydrocyclopenta[3,4]pyrrolo[3,5-b]pyrazin-4-one]: the IC70 is 2100 nM.

`COC[C@@H](C)N1CCn2nc(Nc3cc(-c4ccnc(N5CCn6c(cc7c6CC(C)(C)C7)C5=O)c4CO)cn(C)c3=O)cc2C1` [Example 300, (R)-2-(3′-(hydroxymethyl)-5-((5-(1-methoxypropan-2-yl)-4,5,6,7-tetrahydropyrazolo[1,5-a]pyrazin-2-yl)amino)-1-methyl-6-oxo-1,6-dihydro-[3,4′-bipyridin]-2′-yl)-7,7-dimethyl-2,3,4,6,7,8-hexahydro-1H-cyclopenta[4,5]pyrrolo[1,2-a]pyrazin-1-one]: the concentration for an effect of 70% (IC70) came out at 24 nM.

Take `Cn1cc(-c2ccnc(N3CCn4c(cc5c4CC(C)(C)C5)C3=O)c2CO)cc(Nc2ccc(C(F)(F)F)nn2)c1=O` [Example 301, 3-[3-(hydroxymethyl)-4-[1-methyl-6-oxo-5-[[6-(trifluoromethyl)pyridazin-3-yl]amino]-3-pyridyl]-2-pyridyl]-7,7-dimethyl-1,2,6,8-tetrahydrocyclopenta[3,4]pyrrolo[3,5-b]pyrazin-4-one]: the concentration for an effect of 70% (IC70) amounted to 1300 nM.

As for `CN(Cc1cc(Nc2cc(-c3ccnc(N4CCn5c(cc6c5CC(C)(C)C6)C4=O)c3CO)cn(C)c2=O)nn1C)C1COC1` [Example 302, 3-[3-(hydroxymethyl)-4-[1-methyl-5-[[1-methyl-5-[[methyl(oxetan-3-yl)amino]methyl]pyrazol-3-yl]amino]-6-oxo-3-pyridyl]-2-pyridyl]-7,7-dimethyl-1,2,6,8-tetrahydrocyclopenta[3,4]pyrrolo[3,5-b]pyrazin-4-one], the IC70 came out at 22.8 nM.

Turning to `COCCN1CCn2nc(Nc3cc(-c4ccnc(-n5ncc6c7c(sc6c5=O)CC(C)(C)C7)c4CO)cn(C)c3=O)cc2C1` [Example 304, 3-[3-(hydroxymethyl)-4-[5-[[5-(2-methoxyethyl)-6,7-dihydro-4H-pyrazolo[1,5-a]pyrazin-2-yl]amino]-1-methyl-6-oxo-3-pyridyl]-2-pyridyl]-7,7-dimethyl-6,8-dihydrocyclopenta[3,4]thieno[1,3-d]pyridazin-4-one], the 70% effect concentration (IC70) is 40 nM.
